According to US7884070B2, “Linear cationic peptides having antibacterial and/or antifungal properties” (priority 2002, dated 2011):
Converted amounts (≈) assume the structure as drawn. Where two headings read alike, the source gives them in different places. Where a SMILES comes first, the peptide text is derived from it.

Columns and labels:
[1] = tested on: Streptococcus pneumoniae ATCC 6303; type: cell-based
[2] = tested on: Enterococcus faecalis ATCC 29212; type: cell-based
[3] = tested on: Staphylococcus aureus ATCC 25923; type: cell-based
[4] = tested on: Escherichia coli ATCC 35218; type: cell-based
human erythrocytes = test: Hemolytic activity on human erythrocytes; conditions: 30 minutes, 0 to 500 μg/ml, absorbance 414 nm
Procedure: 1·10^6 human erythrocytes were incubated for 30 minutes with increasing concentrations of peptides (from 0 to 500 μg/ml) in a final volume of 150 μl. The hemolytic activity was evaluated by measurement of the absorbance (Abs) at the wave length 414 nm (Absorbance of hemoglobin) of the cellular supernatants. The absorbance of the supernatant after incubation of the erythrocytes in water corresponds to 100% (Abs100) of hemolysis and the absorbance of the supernatant after incubation of the erythrocytes in PBS corresponds to 0% of hemolysis (Abs0). The hemolytic activity of the peptides expressed in percentage corresponds to (Abspeptide−Abs0)/Abs100×100.

C. neoformans Cn52D = type: cell-based, Cryptococcus neoformans
Procedure: D. Determination of the miminimal inhibitory concentration (MIC) in liquid medium for the Filamentous Fungi and Yeast
Peptide concentrations tested: from 0.2 μg/ml to 100 μg/ml.

[5] = tested on: Pseudomonas aeruginosa ATCC 27853; type: cell-based
[6] = tested on: three strains of bacteria (E. coli, P. aeruginosa and S. aureus); conditions: incubation period of 4 hours; cited from earlier work
[7] = Javadpour et al. 1996; cited from earlier work
bacteria = test: In vitro antibacterial properties under standard evaluation conditions (incubation of 18 hours); type: cell-based; conditions: concentrations described in the literature
From the text: In contrast, I unexpectedly discovered that KLAKLAK (SEQ ID NO: 11) is capable of conferring antibacterial and/or antifungal properties on peptides comprising this motif and a peptide sequence not having antibacterial and/or antifungal properties.

[8] = tested on: Enterococcus faecalis ATCC 19433; type: cell-based
[9] = In vivo toxicity: maximal tolerated dose (MTD); conditions: mouse, female OFI mice, intravenous perfusion approx. 15 minutes, 28 days after an injection
Procedure: The maximal tolerated dose (MTD) for each peptide was determined on female OFI mice at 28 days after an injection. The MTD was defined as the maximal nonlethal dose that could be injected. The peptides were administered by the intravenous route as a perfusion of approximately 15 minutes duration. The injection volume was 10 μl/g, the perfusion rate was 1.2 ml/hour and the excipient was a solution of NaCl at 0.8%.

[10] = tested on: Proteus vulgaris ATCC 13315; type: cell-based
[11] = tested on: Serratia marcescens ATCC 8100; type: cell-based
[12] = tested on: Shigella sonnei ATCC 25931
Procedure: The MIC values were determined by the method of microdilution in liquid medium (NCCLS M7A5) for all of the bacterial species on 96-well polystyrene plates.
The culture medium was Mueller-Hinton broth (MHB) (pH≈7.2-7.4) with supplements according to the bacterial species studied: • MHB alone for the non-exigent species, • MHB+3% lysed horse blood for the streptococci, Listeria and Neisseria, • MHB+hemin 15 mg/l+NAD 15 mg/l+yeast extract 5 g/l for Haemophilus.
The bacterial inoculum was prepared from re-isolation performed on: • CLED agar: non-exigent strains, • blood agar+5% goat blood: streptococci, Listeria and Neisseria • chocolate agar+5% goat blood: Haemophilus, Neisseria.
The final inoculum was at ≈5·10^5 cfu/ml (colony forming units). 50 μl of bacterial inoculum was distributed per well containing an equal volume of the peptide solution diluted by half in the appropriate culture medium depending on the bacterial species (0.5 to 512 μg/ml). The cultures were incubated at 35° C. in ambient air for 16 to 20 hours (20 to 24 h for the streptococci).
Determination of the MBC values was performed after inhibition and reading of the MIC plates:
A volume of 3 μl of each concentration of antibiotic was deposited on the agar media: • MH: for the non-exigent strains, • MH+5% sheep blood: for the streptococci, Listeria, Bacillus and Neisseria, • HTM: for the Haemophilus.
The agars were incubated for 18 h at 35° C. in atmosphere: • in ambient air: for the non-exigent strains, • with 5-6% of CO2: for the streptococci, Listeria, Haemophilus and Neisseria.
The MBC is the lowest concentration of antibiotic that inhibits all bacterial growth on the transplant agar (<0. 1% of survivors).

Neisseria sica ATCC 9913 = type: cell-based
[13] = tested on: Shigella flexneri ATCC 112022
[14] = tested on: Staphylococcus aureus ATCC 14154; type: cell-based
[15] = tested on: Streptococcus agalactiae ATCC 13813; type: cell-based
[16] = tested on: Haemophilus influenzae ATCC 49247; type: cell-based
[17] = tested on: Escherichia coli ATCC 25922; type: cell-based
[18] = tested on: Acinetobacter baumanii ATCC 19606; type: cell-based
[19] = tested on: Bacillus subtilis ATCC 6633; type: cell-based
[20] = tested on: Klebsiella pneumoniae ATCC 13883; type: cell-based
[21] = tested on: Staphylococcus epidermidis ATCC 12228; type: cell-based
[22] = tested on: Listeria monocytogenes ATCC 19115; type: cell-based
[23] = tested on: Citrobacter freundii ATCC 8090; type: cell-based
[24] = tested on: Salmonella typhimurium ATCC 14028; type: cell-based
[25] = tested on: Streptococcus pneumoniae ATCC 49619; type: cell-based
[26] = tested on: Bacillus cereus ATCC 11778; type: cell-based
[27] = tested on: Micrococcus luteus ATCC 9341; type: cell-based
[28] = tested on: Enterobacter aerogenes ATCC 13048; type: cell-based
[29] = tested on: Enterococcus faecium ATCC 35667; type: cell-based
[30] = tested on: Streptococcus pyogenes ATCC 19615; type: cell-based
[31] = tested on: Enterobacter cloacae ATCC 23355; type: cell-based

In the case of CC(C)C[C@H](NC(=O)[C@H](CCCCN)NC(=O)CNC(=O)[C@H](CCCCN)NC(=O)[C@H](CCCCN)NC(=O)[C@H](CCCCN)NC(=O)[C@H](CCCNC(=N)N)NC(=O)[C@H](CCCCN)NC(=O)CNC(=O)[C@H](CCCCN)NC(=O)[C@H](C)NC(=O)[C@H](CC(C)C)NC(=O)[C@H](CCCCN)NC(=O)[C@H](C)NC(=O)[C@H](CC(C)C)NC(=O)[C@H](CCCCN)NC(=O)[C@H](CCCCN)NC(=O)[C@H](C)NC(=O)[C@H](CC(C)C)NC(=O)[C@H](CCCCN)NC(=O)[C@H](C)NC(=O)[C@H](CC(C)C)NC(=O)[C@@H](N)CCCCN)C(=O)NCC(=O)N[C@@H](CCCCN)C(=O)N[C@@H](CCCCN)C(=O)N[C@@H](CCCNC(=N)N)C(=O)N[C@@H](CC(=O)O)C(=O)N1CCC[C@H]1C(=O)O [Peptide 3] (H-KLAKLAKKLAKLAKGKRKKKGKLGKKRDP-OH; N-terminus and C-terminus assumed), the MIC [1] is reported as over 500 µg/mL, the MIC [2] is reported as 64 µg/mL (≈ 19.8 µM) and the MIC [3] is reported as 64 µg/mL (≈ 19.8 µM). The MIC [4] was 64 µg/mL (≈ 19.8 µM), the hemolytic activity (human erythrocytes) was “did not exhibit hemolytic activity” and the MIC (C. neoformans Cn52D; tested 0.2 to 100 μg/ml) was 1.56 µg/mL (≈ 0.483 µM). For the same molecule, the MIC [5] was 64 µg/mL (≈ 19.8 µM).

In the case of “KLAKLAKKLAKLAK [14-mer linear peptide, literature 14-mer linear peptide (Javadpour et al. 1996)]”, the antibacterial activity [6] is listed as “showed activity”, the hemolysis [7] is listed as “nonhemolytic” and the antibacterial activity (bacteria) is listed as “did not reveal any biological activity”.

For CC(C)C[C@H](NC(=O)CNC(=O)[C@H](CCCNC(=N)N)NC(=O)[C@H](CCCCN)NC(=O)[C@@H](N)C(C)C)C(=O)N[C@@H](CCCCN)C(=O)N[C@@H](CC(C)C)C(=O)N[C@@H](CCCCN)C(=O)N[C@@H](CC(C)C)C(=O)N[C@@H](C)C(=O)N[C@@H](CCCCN)C(=O)N[C@@H](CC(C)C)C(=O)N[C@@H](C)C(=O)N[C@@H](CCCCN)C(=O)N[C@@H](CCCCN)C(=O)N[C@@H](CC(C)C)C(=O)N[C@@H](C)C(=O)N[C@@H](CCCCN)C(=O)N[C@@H](CC(C)C)C(=O)N[C@@H](C)C(=O)N[C@@H](CCCCN)C(=O)O [Peptide 1] (H-VKRGLKLKLAKLAKKLAKLAK-OH; N-terminus and C-terminus assumed), the MBC [8] was over 512 µg/mL, the MIC [8] was over 512 µg/mL and the MBC [1] was 64 µg/mL (≈ 27.6 µM). For the same molecule, the MIC [1] was 64 µg/mL (≈ 27.6 µM), the MTD at 28 days [9] was over 23.2 mg/kg and the MBC [10] was 256 µg/mL (≈ 110 µM). The MIC [10] was 128 µg/mL (≈ 55.2 µM), the MBC [11] was over 512 µg/mL and the MIC [11] was over 512 µg/mL. For the same molecule, the MBC [2] was over 512 µg/mL, the MIC [2] was over 512 µg/mL and the MBC [12] was 4 µg/mL (≈ 1.72 µM). For the same molecule, the MIC [12] was 4 µg/mL (≈ 1.72 µM), the MBC (Neisseria sica ATCC 9913) was 128 µg/mL (≈ 55.2 µM) and the MIC (Neisseria sica ATCC 9913) was 4 µg/mL (≈ 1.72 µM). For the same molecule, the MBC [13] was 32 µg/mL (≈ 13.8 µM), the MIC [13] was 16 µg/mL (≈ 6.9 µM) and the MBC [3] was 64 µg/mL (≈ 27.6 µM). It also gave an MIC [3] of 64 µg/mL (≈ 27.6 µM), an MBC [14] of 128 µg/mL (≈ 55.2 µM) and an MIC [14] of 64 µg/mL (≈ 27.6 µM). The MBC [15] was 128 µg/mL (≈ 55.2 µM), the MIC [15] was 128 µg/mL (≈ 55.2 µM) and the MBC [16] was 64 µg/mL (≈ 27.6 µM). It also gave an MIC [16] of 64 µg/mL (≈ 27.6 µM), an MBC [17] of 16 µg/mL (≈ 6.9 µM) and an MIC [17] of 16 µg/mL (≈ 6.9 µM). The MBC [4] was 8 µg/mL (≈ 3.45 µM), the MIC [4] was 8 µg/mL (≈ 3.45 µM) and the MBC [18] was 16 µg/mL (≈ 6.9 µM). For the same molecule, the MIC [18] was 8 µg/mL (≈ 3.45 µM), the MBC [19] was 8 µg/mL (≈ 3.45 µM) and the MIC [19] was 8 µg/mL (≈ 3.45 µM). It also gave an MBC [20] of over 512 µg/mL, an MIC [20] of over 512 µg/mL and an MBC [21] of 4 µg/mL (≈ 1.72 µM). For the same molecule, the MIC [21] was 4 µg/mL (≈ 1.72 µM), the MBC [22] was 128 µg/mL (≈ 55.2 µM) and the MIC [22] was 128 µg/mL (≈ 55.2 µM). The MBC [23] was 16 µg/mL (≈ 6.9 µM), the MIC [23] was 16 µg/mL (≈ 6.9 µM) and the MBC [24] was 8 µg/mL (≈ 3.45 µM). For the same molecule, the MIC [24] was 8 µg/mL (≈ 3.45 µM), the MBC [25] was 256 µg/mL (≈ 110 µM) and the MIC [25] was 128 µg/mL (≈ 55.2 µM). The MIC (C. neoformans Cn52D) was 12.5 µg/mL (≈ 5.39 µM), the MBC [26] was 128 µg/mL (≈ 55.2 µM) and the MIC [26] was 128 µg/mL (≈ 55.2 µM). For the same molecule, the MBC [27] was 4 µg/mL (≈ 1.72 µM), the MIC [27] was 4 µg/mL (≈ 1.72 µM) and the MBC [28] was 256 µg/mL (≈ 110 µM). The MIC [28] was 256 µg/mL (≈ 110 µM), the MBC [29] was over 512 µg/mL and the MIC [29] was 128 µg/mL (≈ 55.2 µM). It also gave an MBC [30] of 64 µg/mL (≈ 27.6 µM), an MIC [30] of 64 µg/mL (≈ 27.6 µM) and an MBC [5] of over 512 µg/mL. The MIC [5] was 512 µg/mL (≈ 221 µM), the MBC [31] was 16 µg/mL (≈ 6.9 µM) and the MIC [31] was 16 µg/mL (≈ 6.9 µM).
